US20240025919A1, “AZA-TETRACYCLIC OXAZEPINE COMPOUNDS AND USES THEREOF” (Genentech, Inc., priority 2022, published 2024)
Like-named read-outs stand apart in the source and are kept apart here.

Experiments:
[1] = test system: HPAC (homozygous mutant KRAS G12D human pancreatic cell line); assay: KRAS 3D-Cell Proliferation Assay, HPAC (CellTiter-Glo 3D, 7 days); assay type: cell-based; details: HPAC 3D culture, read-out: Prolif HPAC 3D ATP IC50
Protocol: (§1) Example 503: KRAS 3D-Cell Proliferation Assays. Cellular potencies of compounds are assessed by evaluating inhibition of proliferation in 3D cultures of homozygous mutant KRAS G12D human pancreatic cell lines (AsPC-1 and HPAC) as compared to a KRAS wild type human lung adenocarcinoma cell line (PC-9 and/or H1975). Cells are seeded into 384-well black round-bottom, ultra-low attachment assay plates in 50 uL cell growth medium (RPMI-1640 with 10% fetal bovine serum and 2 mM L-glutamine). After overnight incubation at 37° C. and 5% CO2, compounds solubilized in DMSO are added as dilution series to the wells in a total volume of 150 nL (0.3% DMSO final). The cells are incubated for 7 days at 37° C. and 5% CO2. Cell proliferation is quantitated by addition of 40 uL/well of CellTiter-GloO 3D (Promega), and the well contents are mixed 20× at high speed using liquid handling automation workstation (Bravo with 384-well head) and centrifuged at 1500 rpm for 2 minutes to eliminate bubbles. This reagent in combination with mechanical disruption releases the cellular ATP to promote activity in a luciferase-based enzyme/substrate chemiluminescent detection system. After a 30-minute incubation under ambient conditions with shaking and an additional 10 minutes without shaking, the luminescence is read on a plate reader (e.g. EnVision [PerkinElmer]). The results are normalized to percent inhibition based on the following control samples: DMSO (0% inhibition) and 1 uM staurosporine (100% inhibition). The normalized luminescence results are plotted against compound concentration, and the data are fit to a 4-parameter Hill equation to determine the IC50 values.

KRAS WT = KRAS WT (Homo sapiens (Human), UniProt P01116); assay: KRAS WT Biochemical Assay, BODIPY-GDP Exchange TR-FRET (Example 502; 0.06 nM KRAS WT, 15 nM GDP, 300 nM SOS1, 120-minute incubation); details: read-out: KRas HTRF IC50
Chain of KRAS WT (P01116-2 other isoform, or with tags, fused parts or gaps): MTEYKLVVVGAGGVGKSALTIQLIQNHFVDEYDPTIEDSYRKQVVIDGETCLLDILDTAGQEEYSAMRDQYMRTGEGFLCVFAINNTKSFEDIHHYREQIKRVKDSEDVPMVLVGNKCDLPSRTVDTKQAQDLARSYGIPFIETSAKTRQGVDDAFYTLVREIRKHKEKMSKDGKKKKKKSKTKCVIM
In short: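 IC50 from a 4-parameter Hill fit of percent inhibition, itself the TR-FRET 520/490 nm ratio scaled between DMSO and a fully inhibiting control. Reaction: 300 nM SOS1 and 300 nM BODIPY-GDP added to preformed 0.06 nM KRAS WT/15 nM GDP/Tb-streptavidin complex; 120 min incubation; pH 7.5 HEPES, MgCl2, DTT.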

[2] = test system: H1975 (KRAS wild type human lung adenocarcinoma cell line); assay: KRAS 3D-Cell Proliferation Assay, H1975 (CellTiter-Glo 3D, 7 days); assay type: cell-based; details: H1975 3D culture, read-out: Prolif H1975 3D ATP IC50
Protocol: as §1

KRAS G12D = KRAS G12D (Homo sapiens (Human), UniProt P01116, G12D); assay: KRAS G12D LoEnz Biochemical Assay, BODIPY-GDP Exchange TR-FRET (SOS1-mediated nucleotide exchange); details: read-out: KRas (G12D) GDP HTRF IC50
Chain of KRAS G12D (P01116-2 other isoform, or with tags, fused parts or gaps G12D): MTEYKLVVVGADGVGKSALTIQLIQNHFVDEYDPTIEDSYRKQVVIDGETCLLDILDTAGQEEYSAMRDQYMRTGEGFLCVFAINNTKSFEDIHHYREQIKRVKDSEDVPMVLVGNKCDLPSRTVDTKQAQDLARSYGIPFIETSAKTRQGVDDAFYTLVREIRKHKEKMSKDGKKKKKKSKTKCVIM

Row | SMILES | IC50 [1] | IC50 (KRAS WT) | IC50 [2] | IC50 (KRAS G12D) | IC50 ([1]; Homo sapiens, HPAC, 168 h) | IC50 ([2]; Homo sapiens, NCI-H1975, 168 h)
1 | Cc1cc(N)c(F)c(-c2nc3c4c(ncnc4c2Cl)N2C[C@H]4CC[C@H](N4)[C@H]2[C@H](C)O3)c1C(F)(F)F (single isomer, unassigned) [Compound 95] | 247 nM | 3570 nM | 6700 nM | – | – | –
2 | Cc1c(F)c(N)cc(-c2nc3c4c(nc(OC[C@]5(CN6C[C@H]7C[C@@H]6CO7)CC5(F)F)nc4c2F)N2C[C@H]4CC[C@H](N4)[C@H]2[C@H](C)O3)c1C(F)(F)F [166 b, 5-((5S,5aS,6S,9R)-12-((1-(((1R,4R)-2-Oxa-5-azabicyclo[2.2.1]heptan-5-yl)methyl)-2,2-difluorocyclopropyl)methoxy)-1-fluoro-5-methyl-5a,6,7,8,9,10-hexahydro-5H-4-oxa-3,10a,11,13,14-pentaaza-6,9-methanonaphtho[1,8-ab]heptalen-2-yl)-2-fluoro-3-methyl-4-(trifluoromethyl)aniline] | 1.49 nM | 5.38 nM | 402 nM | 0.15 nM | – | –
3 | Cc1c(F)c(N)cc(-c2nc3c4c(nc(OCC56CCCN5CCN(C)C6=O)nc4c2F)N2C[C@H]4CC[C@H](N4)[C@H]2[C@H](C)O3)c1C(F)(F)F (single isomer, unassigned) [137 (isomer 2)] | – | 454 nM | – | 2.34 nM | 193 nM | 20000 nM
4 | Cc1c(F)c(N)cc(-c2nc3c4c(nc(OC[C@@H]5CCC6C[C@@H](C(=O)N(C)C)CCN65)nc4c2F)N2C[C@H]4CC[C@H](N4)[C@H]2[C@H](C)O3)c1C(F)(F)F (single isomer, unassigned) [133 (isomer 2)] | – | 14.4 nM | – | 0.15 nM | 22.4 nM | 1600 nM
5 | Cc1c(F)c(N)cc(-c2nc3c4c(nc(OCC5CCC6CC(F)(F)CN56)nc4c2F)N2C[C@H]4CC[C@H](N4)[C@H]2[C@H](C)O3)c1C(F)(F)F (single isomer, unassigned) [153 (isomer 2)] | 13.4 nM | 87.6 nM | 4180 nM | 0.32 nM | – | –
6 | Cc1c(F)c(N)cc(-c2nc3c4c(nc(OC[C@H]5CC[C@@H]6CN(C)C(=O)CN56)nc4c2F)N2C[C@H]4CC[C@H](N4)[C@H]2[C@H](C)O3)c1C(F)(F)F (single isomer, unassigned) [131 (isomer 3)] | 77.4 nM | 249 nM | 8850 nM | 2.07 nM | – | –
7 | Cc1c(F)c(N)cc(-c2nc3c4c(nc(OCC5C[C@@H]6C[N@@]5CCO6)nc4c2F)N2C[C@H]4CC[C@H](N4)[C@H]2[C@H](C)O3)c1C(F)(F)F (single isomer, unassigned) [151 (isomer 2)] | – | 25.5 nM | – | 0.12 nM | 8.04 nM | 1690 nM
8 | Cc1c(F)c(N)cc(-c2nc3c4c(nc(OC[C@]5(CN6C[C@H]7C[C@@H]6CO7)CC5(F)F)nc4c2F)N2C[C@H]4CC[C@H](N4)[C@H]2[C@H](C)O3)c1C(F)(F)F (single isomer, unassigned) [166 a] | – | 3.68 nM | 1270 nM | 0.1 nM | 1.44 nM | –
9 | Cc1c(F)c(N)cc(-c2nc3c4c(nc(OC[C@@H]5C[C@@H]6C[N@@]5CCO6)nc4c2F)N2C[C@H]4CC[C@H](N4)[C@H]2[C@H](C)O3)c1C(F)(F)F (single isomer, unassigned) [151 (isomer 1)] | – | 398 nM | – | 1.84 nM | 323 nM | 20000 nM
10 | Cc1c(F)c(N)cc(-c2nc3c4c(nc(OC[C@H]5CC[C@@H]6CN(C)C(=O)CN56)nc4c2F)N2C[C@H]4CC[C@H](N4)[C@H]2[C@H](C)O3)c1C(F)(F)F (single isomer, unassigned) [131 (isomer 1)] | 1430 nM | 2530 nM | 20000 nM | 13.9 nM | – | –
11 | Cc1cc(N)c(F)c(-c2nc3c4c(ncnc4c2Cl)N2C[C@H]4CC[C@H](N4)[C@H]2[C@H](C)O3)c1C(F)(F)F (single isomer, unassigned) [Compound 94] | 2230 nM | 200000 nM | 15200 nM | 2300 nM | – | –
